Measured values published in US9096593B2, “Compounds and methods for kinase modulation, and indications therefor” (Plexxikon Inc., priority 2009, dated 2015).
Like-named read-outs stand apart in the source and are kept apart here.

Experiments:
Fms kinase = Fms kinase (Homo sapiens (Human), UniProt P07333); experiment: Fms kinase biochemical activity assay (AlphaScreen, biotin-(E4Y)10 phosphorylation)
Outline: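 Recombinant human Fms phosphorylating 30 nM biotin-(E4Y)10 with 100 μM ATP (1 ng/well enzyme) in Hepes pH 7.5 buffer with Mg2+/Mn2+, 5% DMSO, 20 min at 30 °C. Phosphotyrosine detected by AlphaScreen streptavidin donor/PY20 acceptor beads; IC50 from signal versus compound concentration.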

c-Kit kinase = c-Kit kinase (Homo sapiens (Human), UniProt P10721); experiment: c-Kit kinase biochemical activity assay (AlphaScreen, biotin-(E4Y)10 phosphorylation)
Chain of c-Kit kinase (P10721 26-976): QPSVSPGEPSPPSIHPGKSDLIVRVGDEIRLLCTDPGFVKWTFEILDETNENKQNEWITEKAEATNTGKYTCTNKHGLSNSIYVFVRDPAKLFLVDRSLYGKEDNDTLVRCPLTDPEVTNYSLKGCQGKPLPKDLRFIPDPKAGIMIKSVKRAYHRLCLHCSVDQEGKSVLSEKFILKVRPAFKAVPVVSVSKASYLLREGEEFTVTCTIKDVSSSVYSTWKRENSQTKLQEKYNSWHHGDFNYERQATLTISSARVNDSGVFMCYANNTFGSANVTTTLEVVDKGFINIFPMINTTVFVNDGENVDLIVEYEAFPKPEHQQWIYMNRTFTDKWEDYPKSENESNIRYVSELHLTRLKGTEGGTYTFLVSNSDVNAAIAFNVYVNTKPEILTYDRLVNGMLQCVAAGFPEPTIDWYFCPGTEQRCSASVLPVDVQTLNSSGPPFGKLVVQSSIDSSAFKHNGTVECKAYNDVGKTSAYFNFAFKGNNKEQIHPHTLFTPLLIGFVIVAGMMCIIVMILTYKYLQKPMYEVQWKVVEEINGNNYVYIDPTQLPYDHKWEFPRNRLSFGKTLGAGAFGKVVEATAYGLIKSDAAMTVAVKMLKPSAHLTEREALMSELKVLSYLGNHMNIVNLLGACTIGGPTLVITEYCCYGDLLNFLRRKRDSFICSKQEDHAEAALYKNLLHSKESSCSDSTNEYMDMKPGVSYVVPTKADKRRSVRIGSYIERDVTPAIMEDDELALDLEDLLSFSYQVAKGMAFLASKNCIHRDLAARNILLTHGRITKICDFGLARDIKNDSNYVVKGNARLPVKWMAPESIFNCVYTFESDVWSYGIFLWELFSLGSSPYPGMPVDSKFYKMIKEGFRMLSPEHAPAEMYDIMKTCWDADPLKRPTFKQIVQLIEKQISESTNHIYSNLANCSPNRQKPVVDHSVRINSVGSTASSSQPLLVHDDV

BCR-FMS/BaF3 cells = BCR-FMS/BaF3 cells (Homo sapiens, UniProt P07333); experiment: BCR-FMS/BaF3 cell proliferation assay (ATPlite); type: cell-based
Chain of BCR-FMS/BaF3 cells (P07333 20-972 limits assumed, change not shown): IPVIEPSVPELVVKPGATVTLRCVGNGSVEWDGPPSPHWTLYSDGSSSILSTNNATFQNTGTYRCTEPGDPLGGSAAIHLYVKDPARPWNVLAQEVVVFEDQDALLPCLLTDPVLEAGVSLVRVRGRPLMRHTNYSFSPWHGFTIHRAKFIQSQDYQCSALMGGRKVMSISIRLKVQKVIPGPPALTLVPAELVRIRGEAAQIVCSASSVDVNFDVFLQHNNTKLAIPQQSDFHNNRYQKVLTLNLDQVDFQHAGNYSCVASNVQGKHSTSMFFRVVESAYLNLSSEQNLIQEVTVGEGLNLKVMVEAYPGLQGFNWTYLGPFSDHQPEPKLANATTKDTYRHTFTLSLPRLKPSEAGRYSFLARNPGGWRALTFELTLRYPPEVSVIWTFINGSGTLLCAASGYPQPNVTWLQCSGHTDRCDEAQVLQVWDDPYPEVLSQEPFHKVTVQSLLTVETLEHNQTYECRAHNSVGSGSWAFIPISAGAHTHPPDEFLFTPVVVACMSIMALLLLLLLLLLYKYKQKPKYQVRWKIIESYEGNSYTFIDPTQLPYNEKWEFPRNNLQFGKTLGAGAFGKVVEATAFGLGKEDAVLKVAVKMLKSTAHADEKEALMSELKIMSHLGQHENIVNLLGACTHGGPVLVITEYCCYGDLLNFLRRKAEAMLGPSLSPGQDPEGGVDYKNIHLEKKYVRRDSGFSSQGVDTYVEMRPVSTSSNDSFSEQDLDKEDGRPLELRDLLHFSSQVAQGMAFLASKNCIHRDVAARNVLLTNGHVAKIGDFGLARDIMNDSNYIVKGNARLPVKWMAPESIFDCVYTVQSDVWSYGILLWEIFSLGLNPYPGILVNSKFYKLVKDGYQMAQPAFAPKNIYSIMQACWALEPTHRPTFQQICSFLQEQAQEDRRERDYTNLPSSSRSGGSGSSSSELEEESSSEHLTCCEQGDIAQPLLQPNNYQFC
Outline: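 BCR-FMS/BaF3 cells at 2×10^5 cells/mL in growth media with 1 mg/mL G418, without WEHI/IL-3, treated with 8-point 1:3 compound titrations (top 10 μM final) for 3 days at 37 °C, 5% CO2. Cell number by ATPlite luminescence; IC50 from signal versus concentration.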

[1] = 100 μM ATP, read-out: Biochemical (IC50 μM) Fms
[2] = read-out: Biochemical activity (IC50 μM) Fms
[3] = Kit IC50/Fms IC50, BCR-KIT/BaF3 vs BCR-FMS/BaF3 cells
[4] = read-out: BCR/BaF3 (IC50 μM) Fms; BCR-FMS/BaF3 cells
[5] = read-out: Cell based (IC50 μM) BCR/BaF3 (Fms); BCR-FMS/BaF3 cells, 3 days
[6] = BCR-FMS/BaF3 cells; read-out: BCR/BaF3 (IC50 μM) Fms

Chain of Fms kinase (P07333 20-972): as the sequence (P07333 20-972 limits assumed, change not shown) above

SMILES	IC50 (Fms kinase; [1]) [µM]	Biochemical activity selectivity (Kit IC50/Fms IC50) (Fms kinase)	IC50 (Fms kinase; [2]) [µM]	IC50 (c-Kit kinase) [µM]	BCR/BaF3 selectivity (Kit IC50/Fms IC50) (BCR-FMS/BaF3 cells; [3])	IC50 (BCR-FMS/BaF3 cells; [4]) [µM]	IC50 (BCR-FMS/BaF3 cells; [5]) [µM]	IC50 (BCR-FMS/BaF3 cells; [6]) [µM]
COc1ccc(CNc2ccc(Cc3c[nH]c4ncc(C)cc34)c(F)n2)cn1 [Compound P-2029, [6-Fluoro-5-(5-methyl-1H-pyrrolo[2,3-b]pyridin-3-ylmethyl)-pyridin-2-yl]-(6-methoxy-pyridin-3-ylmethyl)-amine]	< 0.1	>20	< 0.1	> 0.1	>20	< 0.1	< 0.1	
COc1ccc(CNc2ncc(Cc3c[nH]c4ncc(C)cc34)cc2C)cn1 [Compound P-1554, (6-Methoxy-pyridin-3-ylmethyl)-[3-methyl-5-(5-methyl-1H-pyrrolo[2,3-b]pyridin-3-ylmethyl)-pyridin-2-yl]-amine]		<20	< 0.1	< 0.1	<20			< 0.1
Cc1cnc2[nH]cc(Cc3ccc(NCc4cccnc4F)nc3F)c2c1 [Compound P-2103, [6-Fluoro-5-(5-methyl-1H-pyrrolo[2,3-b]pyridin-3-ylmethyl)-pyridin-2-yl]-(2-fluoro-pyridin-3-ylmethyl)-amine]		>20	< 0.1	> 0.1	<20	< 0.1		
CS(=O)(=O)Nc1cnc2[nH]cc(Cc3ccc(NCc4ccc(Cl)nc4)nc3F)c2c1 [Compound P-1679, N-(3-{6-[(6-Chloro-pyridin-3-ylmethyl)-amino]-2-fluoro-pyridin-3-ylmethyl}-1H-pyrrolo[2,3-b]pyridin-5-yl)-methanesulfonamide]		>20	< 0.1	> 0.1	>20	< 0.1		
Cc1cnc2[nH]cc(Cc3ccc(NCc4ccc(Cl)nc4)nc3F)c2c1 [Compound P-2088, (6-Chloro-pyridin-3-ylmethyl)-[6-fluoro-5-(5-methyl-1H-pyrrolo[2,3-b]pyridin-3-ylmethyl)-pyridin-2-yl]-amine]		>20	< 0.1	> 0.1	>20	< 0.1		
COc1ccc(CNc2ncc(Cc3c[nH]c4ncc(C)cc34)cc2F)cn1 [Compound P-1562, [3-Fluoro-5-(5-methyl-1H-pyrrolo[2,3-b]pyridin-3-ylmethyl)-pyridin-2-yl]-(6-methoxy-pyridin-3-ylmethyl)-amine]		<20	< 0.1	< 0.1	<20	< 0.1		
COc1ccc(CNc2ncc(Cc3c[nH]c4ncc(Cl)cc34)s2)cn1 [Compound P-2154, [5-(5-Chloro-1H-pyrrolo[2,3-b]pyridin-3-ylmethyl)-thiazol-2-yl]-(6-methoxy-pyridin-3-ylmethyl)-amine]		<20	< 0.1	< 0.1	<20			< 0.1
COc1cnc2[nH]cc(Cc3ccc(NCc4ccc(Cl)cc4)nc3F)c2c1 [Compound P-2032, (4-Chloro-benzyl)-[6-fluoro-5-(5-methoxy-1H-pyrrolo[2,3-b]pyridin-3-ylmethyl)-pyridin-2-yl]-amine]	< 0.1	<20	< 0.1	< 0.1	<20	< 0.1	< 0.1	
COc1ncc(CNc2ncc(Cc3c[nH]c4ncc(C)cc34)cn2)cc1F [Compound P-2073, (5-Fluoro-6-methoxy-pyridin-3-ylmethyl)-[5-(5-methyl-1H-pyrrolo[2,3-b]pyridin-3-ylmethyl)-pyrimidin-2-yl]-amine]		>20	< 0.1	> 0.1	>20	< 0.1		
Cc1cnc2[nH]cc(Cc3cnc(NCc4cccc(N5CCCC5)n4)nc3)c2c1 [Compound P-2082, [5-(5-Methyl-1H-pyrrolo[2,3-b]pyridin-3-ylmethyl)-pyrimidin-2-yl]-(6-pyrrolidin-1-yl-pyridin-2-ylmethyl)-amine]		<20	< 0.1	< 0.1	<20	< 0.1		
Cc1cnc2[nH]cc(Cc3ccc(NCc4ccc(C(F)(F)F)nc4)nc3F)c2c1 [Compound P-2031, [6-Fluoro-5-(5-methyl-1H-pyrrolo[2,3-b]pyridin-3-ylmethyl)-pyridin-2-yl]-(6-trifluoromethyl-pyridin-3-ylmethyl)-amine]	< 0.1	<20	< 0.1	> 0.1	>20	< 0.1	< 0.1	
COc1ncc(F)cc1CNc1ncc(Cc2c[nH]c3ncc(Cl)cc23)cn1 [Compound P-2064, [5-(5-Chloro-1H-pyrrolo[2,3-b]pyridin-3-ylmethyl)-pyrimidin-2-yl]-(5-fluoro-2-methoxy-pyridin-3-ylmethyl)-amine]		>20	< 0.1	> 0.1	>20	< 0.1		
Cc1cnc2[nH]cc(Cc3ccc(NCc4cnccc4C(F)(F)F)nc3F)c2c1 [Compound P-2062, [6-Fluoro-5-(5-methyl-1H-pyrrolo[2,3-b]pyridin-3-ylmethyl)-pyridin-2-yl]-(4-trifluoromethyl-pyridin-3-ylmethyl)-amine]		>20	< 0.1	> 0.1	>20	< 0.1		
FC(F)(F)c1ccncc1CNc1ccc(Cc2c[nH]c3ncc(Cl)cc23)cn1 [Compound P-2063, [5-(5-Chloro-1H-pyrrolo[2,3-b]pyridin-3-ylmethyl)-pyridin-2-yl]-(4-trifluoromethyl-pyridin-3-ylmethyl)-amine]		<20	< 0.1	< 0.1	>20	< 0.1		
COc1ncccc1CNc1ccc(Cc2c[nH]c3ncc(C)cc23)c(F)n1 [Compound P-2052, [6-Fluoro-5-(5-methyl-1H-pyrrolo[2,3-b]pyridin-3-ylmethyl)-pyridin-2-yl]-(2-methoxy-pyridin-3-ylmethyl)-amine]		>20	< 0.1	> 0.1	>20	< 0.1		
CCS(=O)(=O)Nc1ccccc1CNc1ccc(Cc2c[nH]c3ncc(C)cc23)c(F)n1 [Compound P-2198, Ethanesulfonic acid (2-{[6-fluoro-5-(5-methyl-1H-pyrrolo[2,3-b]pyridin-3-ylmethyl)-pyridin-2-ylamino]-methyl}-phenyl)-amide]		<20	< 0.1	> 0.1	<20	< 0.1		
